Data on 24 molecules can be found in patent US4588720A, “Imidazo[1,2-a]pyrimidines” (Roussel Uclaf, priority 1982, dated 1986).

One assay concerns the target benzodiazepine receptors. Kind of assay: Affinity for benzodiazepine receptors ([3H] flunitrazepam radioreceptor binding). The note with it: inhibition of specific binding of 0.6 nM [^3 H] flunitrazepam, rat forebrain membrane preparations; read-out: Receptor Binding (IC50 nM). On the procedure: A. Affinity for benzodiazepine receptors
The affinity of the compounds for benzodiazepine receptors was assessed using the radioligand [^3 H] flunitrazepam and modifications of the original radioreceptor binding method of Squares and Braestrup (Nature, Vol. 266 (1977) p. 732). The values given in Table VI are nanomolar concentrations of test compound which inhibited the specific binding of 0.6 nM[^3 H] flunitrazepam to rat forebrain membrain preparations by 50% (IC50 nM).

A short description of assay [1]: Anxiolytic activity, Geller conflict method (Geller and Seifter). In kind it is in vivo. The conditions noted are these: po; modified Geller and Seifter conflict method; read-out: Geller Conflict (MED mg/kg po), minimum effective dose at which there was an observed increase in shocks above control. On the procedure: Screening for anxiolytic activity was carried out by modifications of the conflict method of Geller and Seifter (Psychopharmacologia, (1960), Volume I, p. 482). The values given in Table VI are the minimum effective doses at which there was an observed increase in shocks above control (MED me/kg po).

As to `CCCCc1c(C)c(OC)nc2nc(C(=O)c3ccccc3)cn12` [Example 39, [5-n-Butyl-7-methoxy-6-methylimidazo[1,2-a]pyrimidin-2-yl]phenylmethanone], the half-maximal inhibitory concentration (IC50) (in general, the midpoint of a concentration-inhibition curve) on benzodiazepine receptors was found to be 400 nM. Besides, the minimal effective dose in assay [1] was 50 mg/kg.
In the same order, the values of `C=CCc1c(OC)nc2nc(C(=O)c3ccccc3)cn2c1C` [Example 20, (6-Allyl-7-methoxy-5-methylimidazo[1,2-a]pyrimidin-2-yl)phenylmethanone] are 45 nM and 4 mg/kg.
The matching figures for `COc1nc2nc(C(=O)c3ccccc3)cn2c2c1CCCCC2` [Example 8]: 125 nM and 10 mg/kg.
The matching figures for `C=CCc1c(OC)nc2nc(C(=O)c3ccccc3)cn2c1CCC` [Example 37, [6-Allyl-7-methoxy-5-n-propylimidazo[1,2-a]pyrimidin-2-yl]phenylmethanone]: 135 nM and 50 mg/kg.
In the case of `CCc1cn2cc(C(=O)c3ccccc3)nc2nc1OC` [Example 38, [6-Ethyl-7-methoxyimidazo[1,2-a]pyrimidin-2-yl]phenylmethanone], the IC50 at benzodiazepine receptors was 1500 nM. The minimal effective dose in assay [1] worked out at 5 mg/kg.
The matching figures for `CCCCc1cc(OC)nc2nc(C(=O)c3ccccc3)cn12` [Example 43, [5-n-Butyl-7-methoxyimidazo[1,2-a]pyrimidin-2-yl]phenylmethanone]: 340 nM and 10 mg/kg.
In the same order, the values of `CCCCCCc1c(OC)nc2nc(C(=O)c3ccccc3)cn2c1C` [Example 19, (6-n-Hexyl-7-methoxy-5-methylimidazo[1,2-a]pyrimidin-2-yl)phenylmethanone] are 180 nM and 20 mg/kg.
On to `COc1ccn2cc(C(=O)c3ccccc3)nc2n1` [Example 28, [7-Methoxyimidazo[1,2-a]pyrimidin-2-yl]phenylmethanone], for which the IC50 at benzodiazepine receptors worked out at 8500 nM. The minimal effective dose in assay [1] worked out at 50 mg/kg.
In the same order, the values of `CCCc1cc(SC)nc2nc(C(=O)c3ccccc3)cn12` [Example 22, [7-(Methylthio)-5-propylimidazo[1,2-a]pyrimidin-2-yl]phenylmethanone] are 89 nM and 50 mg/kg.
The matching figures for `CCCCc1c(OC)nc2nc(C(=O)c3ccccc3)cn2c1CCC` [Example 34, [6-n-Butyl-7-methoxy-5-n-propylimidazo[1,2-a]pyrimidin-2-yl]phenylmethanone]: 710 nM and 50 mg/kg.
In the same order, the values of `CCCc1cc(OC)nc2nc(C(=O)c3ccccc3)cn12` [Example 14, (7-Methoxy-5-propylimidazo[1,2-a]pyrimidin-2-yl)phenylmethanone] are 535 nM and 1 mg/kg.
Take `CSc1cc(C)n2cc(C(=O)c3ccccc3)nc2n1` [Example 21, [5-Methyl-7-(methylthio)imidazo[1,2-a]pyrimidin-2-yl]phenylmethanone]: the IC50 at benzodiazepine receptors was found to be 190 nM. In addition, in assay [1], the minimal effective dose stood at 50 mg/kg.
For the molecule `CCOc1nc2nc(C(=O)c3ccccc3)cn2c2c1CCCCC2` [Example 10], the IC50 on benzodiazepine receptors stood at 4000 nM. Also, the minimal effective dose in assay [1] was 5 mg/kg.
In the same order, the values of `CCc1c(OC)nc2nc(C(=O)c3ccccc3)cn2c1C` [Example 16, (6-Ethyl-7-methoxy-5-methylimidazo[1,2-a]pyrimidin-2-yl)phenylmethanone] are 56 nM and 2 mg/kg.
In the same order, the values of `CCCCCc1c(OC)nc2nc(C(=O)c3ccccc3)cn2c1C` [Example 47, [7-Methoxy-5-methyl-6-n-pentylimidazo[1,2-a]pyrimidin-2-yl]phenylmethanone] are 107 nM and 20 mg/kg.
For the molecule `CCc1c(SC)nc2nc(C(=O)c3ccccc3)cn2c1C` [Example 49, [6-ethyl-5-methyl-7-(methylthio)imidazo[1,2-a]pyrimidin-2-yl]phenylmethanone], the half-inhibitory concentration (IC50) at benzodiazepine receptors stood at 12 nM. Also, the minimal effective dose in assay [1] was 2 mg/kg.
In the same order, the values of `CSc1nc2nc(C(=O)c3ccccc3)cn2c2c1CCC(C)C2` (stereo not drawn) [Example 18, [8-Methyl-5-(methylthio)-6,7,8,9-tetrahydroimidazo[1,2-a]quinzolin-2-yl]phenylmethanone] are 76 nM and 50 mg/kg.
The matching figures for `CCCCc1c(CCC)c(OC)nc2nc(C(=O)c3ccccc3)cn12` [Example 46, [5-n-Butyl-7-methoxy-6-n-propylimidazo[1,2-a]pyrimidin-2-yl]phenylmethanone]: 1200 nM and 20 mg/kg.
The matching figures for `COc1nc2nc(C(=O)c3ccccc3)cn2c(C)c1Cc1ccccc1` [Example 9, (6-Benzyl-7-methoxy-5-methylimidazo[1,2-a]pyrimidin-2-yl)phenylmethanone]: 45 nM and 50 mg/kg.
Take `CCSc1nc2nc(C(=O)c3ccccc3)cn2c2c1CCC2` [Example 13, [5-(Ethylthio)cyclopenta[e]imidazo[1,2-a]pyrimidin-2-yl]phenylmethanone]: on benzodiazepine receptors, the IC50 worked out at 1850 nM. The minimal effective dose in assay [1] came out at 50 mg/kg.
In the same order, the values of `COc1nc2nc(C(=O)c3ccccc3)cn2c2c1CCCC2` [Example 1, (5-methoxy-6,7,8.9-tetrahydroimidazo[1,2-a]quinazolin-2-yl)phenylmethanone] are 61 nM and 5 mg/kg.
In the same order, the values of `COc1nc2nc(C(=O)c3ccccc3)cn2c(C)c1CC1CCCCC1` [Example 24, [6-Cyclohexylmethyl-7-methoxy-5-methylimidazo[1,2-a]pyrimidin-2-yl]phenylmethanone] are 250 nM and 50 mg/kg.
The matching figures for `C=CCc1c(OC)nc2nc(C(=O)c3ccccc3)cn2c1CC` [Example 44, [6-Allyl-5-ethyl-7-methoxyimidazo[1,2-a]pyrimidin-2-yl]phenylmethanone]: 42 nM and 10 mg/kg.
Turning to `COc1cc(C)n2cc(C(=O)c3ccccc3)nc2n1` [Example 3, (7-Methoxy-5-methylimidazol[1,2-a]pyrimidin-2-yl)-phenyl methanone], the IC50 at benzodiazepine receptors was 800 nM. For the same molecule, in assay [1], the minimal effective dose was 5 mg/kg.
